Laboratory results as given in publication PMC8993905, “Functional control of a 0.5 MDa TET aminopeptidase by a flexible loop revealed by MAS NMR” (Nature Communications, 2022).

Legend:
[1] = target: T1, TET2 (Pyrococcus horikoshii, UniProt O59196); experiment: MAS NMR 1H-15N peak doubling (G92, D94, H323); assay type: binding; conditions: active site; 50% (vol/vol) MPD, pH 7.6, ca. 28 °C; slow exchange
T1 construct: gene frvX; full length, 353 residues per subunit, pET41c in E. coli BL21(DE3), no tag mentioned (heat step, Resource Q, Superdex 200), 39 kDa subunit, 468 kDa homododecamer, two Zn per active site
T1 sequence (O59196 whole entry): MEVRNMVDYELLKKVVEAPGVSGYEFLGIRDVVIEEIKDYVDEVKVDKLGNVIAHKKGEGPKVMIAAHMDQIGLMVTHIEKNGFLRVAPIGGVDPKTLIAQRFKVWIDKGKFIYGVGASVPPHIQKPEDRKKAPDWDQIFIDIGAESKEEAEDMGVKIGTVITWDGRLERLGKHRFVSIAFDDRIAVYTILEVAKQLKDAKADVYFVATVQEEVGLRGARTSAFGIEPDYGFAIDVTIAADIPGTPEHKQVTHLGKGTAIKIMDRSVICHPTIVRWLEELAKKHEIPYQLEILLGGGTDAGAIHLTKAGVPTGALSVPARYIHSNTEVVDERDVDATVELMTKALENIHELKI

[2] = target: T1, TET2; experiment: MAS NMR chemical-shift perturbation; assay type: binding; conditions: active site, non-covalent; isotope-labelled protein, ca. 28 °C
[3] = target: T2, TET2 (Pyrococcus horikoshii, UniProt O59196, H123F); experiment: MAS NMR 1H-15N chemical-shift perturbation; assay type: binding; conditions: active site, non-covalent; isotope-labelled protein, ca. 28 °C
T2 construct: gene frvX; full length, 353 residues per subunit, pET41c in E. coli BL21(DE3), no tag mentioned (heat step, Resource Q, Superdex 200), 39 kDa subunit, 468 kDa homododecamer, two Zn per active site
T2 sequence (O59196 whole entry H123F): as the sequence (O59196 whole entry) above, with H123F counted along it

[4] = target: T3, TET2 (Pyrococcus horikoshii, UniProt O59196, H123Y); experiment: H-Leu-pNA hydrolysis, absorbance at […] nm; assay type: biochemical; conditions: 6.4 mM H-Leu-pNA, 1, 5 or 20 mM histidine, pH 7.5, 50 °C
T3 construct: gene frvX; full length, 353 residues per subunit, pET41c in E. coli BL21(DE3), no tag mentioned (heat step, Resource Q, Superdex 200), 39 kDa subunit, 468 kDa homododecamer, two Zn per active site
T3 sequence (O59196 whole entry H123Y): as the sequence (O59196 whole entry) above, with H123Y counted along it

[5] = target: T1, TET2; experiment: H-Leu-pNA hydrolysis, absorbance at […] nm; assay type: biochemical; conditions: 6.4 mM H-Leu-pNA, 1, 5 or 20 mM histidine, pH 7.5, 50 °C

CC(O)CC(C)(C)O (centres unmarked) [2-methyl-2,4-pentanediol]
MAS NMR 1H-15N peak doubling (G92, D94, H323) [1]: 2-methyl-2,4-pentanediol (MPD), a common crystallization agent used also to obtain solid-state NMR samples, interacts

CC(C)C[C@@H](N)[C@H](O)C(=O)N[C@H](C(=O)N[C@H](C(=O)N[C@@H](CC(=O)O)C(=O)O)C(C)C)C(C)C [amastatin]
MAS NMR chemical-shift perturbation [2]: MAS NMR experiments reveal the chemical-shift perturbations induced by this tightly bound inhibitor
MAS NMR 1H-15N chemical-shift perturbation [3]: We ensured that amastatin tightly binds to the H123F mutant

N[C@@H](Cc1c[nH]cn1)C(=O)O [histidine]
activity with added free histidine [4]: addition of free His not only does not increase the activity, but abolishes the function
activity with added free histidine [5]: abolishes the function of WT and mutant TET2
